Where “and” joins values, the source holds several entries; their conditions need not be identical. Equal entries are not always repeated. Where two headings read alike, the source gives them in different places.
Experiments:
Septoria tritici [1] = assay: Septoria tritici on wheat, preventive treatment; assay type: in vivo; settings: solo, wheat Riband, 1 day preventive, 18 days after application
Botrytis cinerea = Botrytis cinerea (gray mould), PDB microtiter plate, visual after 72 hrs; assay type: cell-based; settings: Botrytis cinerea; for inhibition at 0.015625 ppm: rate 0.015625 ppm; for inhibition at 0.03125 ppm: rate 0.03125 ppm; for inhibition at 0.03125 ppm / inhibition at 0.0625 ppm: read-out: Activity (%); for inhibition at 0.0625 ppm: rate 0.0625 ppm; for inhibition at 0.25 ppm: rate 0.25 ppm; for inhibition at 0.5 ppm: rate 0.5 ppm; for inhibition at 1 ppm: rate 1 ppm; for inhibition at 2 ppm: rate 2 ppm
Septoria tritici [2] = assay: Septoria tritici (leaf blotch), YBG microtiter plate, photometric growth inhibition after 6 days; assay type: cell-based; settings: Zymoseptoria tritici, 144 h, solo
Description: (§1) In the following Tables ‘Activity (%)’ means the assessed experimental activity (% disease control in this test when compared to untreated control leaf disks under the same conditions, which show extensive disease development) and “P” is the expected value calculated (expected) activity according to the COLBY formula (see above). The column headed ‘S?’ indicates whether or not synergy was observed, with ‘y’ meaning that synergy was observed.
Septoria tritici (Leaf Blotch):
After placing solutions of the test compounds (containing 0.2% DMSO) into a microtiter plate (96-well format), an equal amount of the nutrient broth (YBG) was added to each of the well. Finally the fungal spore solution was added. The test plates were incubated at 20° C. The inhibition of growth was determined photometrically after 6 days and the activity calculated in relation to untreated control.

Sclerotinia sclerotiorum = Sclerotinia sclerotiorum on oilseed rape, preventive treatment; assay type: in vivo; settings: solo, 1 day preventive, 11 days after application
Description: as §1
Sclerotinia sclerotiorum on Oilseed Rape, Preventive Treatment
The compound activity was tested under 1 day preventive conditions. Oilseed rape plants with 3 unfolded leafs were sprayed with a track sprayer and 200 I/ha spray volume with the test compounds, either solo or in tankmix as shown in the table below.
1 day after application the plants were infested with a solution of Sclerotinia sclerotiorum mycelium. The plants were placed under plastic hoods and high humidity conditions in a climate chamber at 14 h day/10 h night cycle and 15° C. Disease infestation was evaluated visually 11 days after application and average activity calculated in relation to disease severity on untreated check.

[3] = test system: Blumeria graminis f. sp. tritici (Erysiphe graminis f. sp. tritici); assay: Blumeria graminis f. sp. tritici / wheat / leaf disc preventative (powdery mildew on wheat); assay type: in vivo; settings: foliar, compared to untreated control leaf disks, read-out: disease control
Outline: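 Preventative leaf-disc test: compound (200 ppm) was sprayed onto cv. Kanzler wheat segments, which were dusted with conidia from infected plants 1 day after application. After incubation at 20° C and 60% rh, disease control relative to untreated segments was rated 6-8 days after application.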

Sphaerotheca fuliginea = Sphaerotheca fuliginea (powdery mildew) on cucumber, preventive treatment; assay type: in vivo; settings: solo, 2 days preventive, 10 days after application
Description: In the following Tables 'Activity (%)' means the assessed experimental activity (% disease control in this test when compared to untreated control leaf disks under the same conditions, which show extensive disease development) and “P” is the expected value calculated (expected) activity according to the COLBY formula (see above). The column headed 'S?' indicates whether or not synergy was observed, with 'y' meaning that synergy was observed. Sphaerotheca fuliqinea (Powdery Mildew) on Cucumber, Preventive Treatment […] Cucumber plants with unfolded cotyledons were sprayed with a roomsprayer and 40 ml/4 plants spray volume with the test compounds, either solo or in […] shown in the table below. 2 days after application the plants were infested with spores of Sphaerotheca fuliginea.

[4] = test system: Puccinia recondita f. sp. tritici; assay: Puccinia recondita f. sp. tritici / wheat / leaf disc curative (brown rust); assay type: in vivo; settings: foliar, compared to untreated control leaf disks, read-out: disease control
Method: Puccinia recondita f. sp. tritici/Wheat/Leaf Disc Curative (Brown Rust) Wheat leaf segments cv. Kanzler are placed on agar in multiwell plates (24-well format). The leaf segments are inoculated with a spore suspension of the fungus. Plates were stored in darkness at 19° C. and 75% rh. The formulated test compound diluted in water was applied 1 day after inoculation.

Septoria tritici [5] = assay: Septoria tritici (leaf blotch), PDB microtiter plate, visual after 72 hrs; assay type: cell-based; settings: Zymoseptoria tritici, single compound
[6] = test system: Mycosphaerella arachidis (y. Cercospora arachidicola); assay: Mycosphaerella arachidis (brown leaf spot of groundnut), PDB microtiter plate, visual after 5-6 days; assay type: cell-based; settings: Mycosphaerella arachidis, single compound
[7] = test system: Phakopsora pachyrhizi (triazole tolerant soybeanrust strain); assay: Phakopsora pachyrhizi on soybean, preventive treatment; assay type: in vivo; settings: solo, soybean leaf discs, 1 day preventive, 11 days after application
[8] = test system: Monographella nivalis (syn. Microdochium nivale, Fusarium nivale); assay: Monographella nivalis (snow mould, foot rot of cereals), PDB microtiter plate, visual after 72 hrs; assay type: cell-based; settings: Monographella nivalis
[9] = single compound, rate 0.125 ppm
[10] = 0.25 ppm, read-out: Activity (%)

`CCN(C)/C=N/c1cc(Br)c(OC2Cc3ccccc3C2)nc1C` [Q.062] was tested, and the Activity (Septoria tritici [1]; 1 g a.i./ha) was 2%, the Activity (Septoria tritici [1]; 3 g a.i./ha) was 8% and 6% and the Activity (Septoria tritici [1]; 27 g a.i./ha) was 50% and 71%. For the same compound, the Activity (Septoria tritici [1]; 81 g a.i./ha) was 61%, the inhibition at 0.00390625 ppm (Botrytis cinerea; alone, rate 0.00390625 ppm) was 0% and the inhibition at 0.0078125 ppm (Botrytis cinerea; alone, rate 0.0078125 ppm) was 0%. For the same compound, the inhibition at 0.015625 ppm (Botrytis cinerea; alone) was 0%, the inhibition at 0.03125 ppm (Botrytis cinerea; alone) was 0% and the inhibition at 0.0625 ppm (Botrytis cinerea; alone) was 0%. The inhibition at 0.1258 ppm (Botrytis cinerea; alone, rate 0.1258 ppm) was 0%, the inhibition at 0.25 ppm (Botrytis cinerea; alone) was 0% and the inhibition at 0.5 ppm (Botrytis cinerea; alone) was 0%. It also gave an inhibition at 1 ppm (Botrytis cinerea; alone) of 0%, an inhibition at 2 ppm (Botrytis cinerea; alone) of 0% and an inhibition at 0.015625 ppm (Botrytis cinerea; single compound) of 0%. For the same compound, the inhibition at 0.03125 ppm (Botrytis cinerea; single compound) was 0%, the inhibition at 0.0625 ppm (Botrytis cinerea; single compound) was 0% and the inhibition at 0.125 ppm (Botrytis cinerea; [9]) was 0%. The inhibition at 0.25 ppm (Botrytis cinerea; single compound) was 0%, the inhibition at 0.5 ppm (Botrytis cinerea; single compound) was 0% and the inhibition at 1 ppm (Botrytis cinerea; single compound) was 0%. It also gave an inhibition at 2 ppm (Botrytis cinerea; single compound) of 0%, an inhibition of growth at 0.00390625 ppm (Septoria tritici [2]; rate 0.00390625 ppm) of 32% and an inhibition of growth at 0.0078125 ppm (Septoria tritici [2]; rate 0.0078125 ppm) of 31%. The inhibition of growth at 0.078125 ppm (Septoria tritici [2]; rate 0.078125 ppm) was 29%, the inhibition of growth at 0.15625 ppm (Septoria tritici [2]; rate 0.15625 ppm, read-out: Activity) was 39% and the inhibition of growth at 0.3125 ppm (Septoria tritici [2]; rate 0.3125 ppm) was 37%. For the same compound, the inhibition of growth at 1.25 ppm (Septoria tritici [2]; rate 1.25 ppm) was 51%, the inhibition of growth at 2.5 ppm (Septoria tritici [2]; rate 2.5 ppm) was 48% and the inhibition of growth at 5 ppm (Septoria tritici [2]; rate 5 ppm) was 64%. For the same compound, the Activity (Sclerotinia sclerotiorum; rate 25 ppm) was 0%, the Activity (Sclerotinia sclerotiorum; rate 50 ppm) was 2% and the Activity (Sclerotinia sclerotiorum; rate 100 ppm) was 26%. It also gave a pest or weed control at 200 ppm [3] of no less than 50%, an Activity (Sphaerotheca fuliginea; rate 0.2 ppm) of 0% and an Activity (Sphaerotheca fuliginea; rate 0.6 ppm) of 0%. For the same compound, the Activity (Sphaerotheca fuliginea; rate 2 ppm) was 7%, the pest or weed control at 200 ppm [4] was no less than 50% and the inhibition at 0.00390625 ppm (Septoria tritici [5]; 0.00390625 ppm) was 0%. The inhibition at 0.0078125 ppm (Septoria tritici [5]; 0.0078125 ppm) was 0%, the inhibition at 0.015625 ppm (Septoria tritici [5]; 0.015625 ppm) was 0% and the inhibition at 0.03125 ppm (Septoria tritici [5]; 0.03125 ppm) was 0%. For the same compound, the inhibition at 0.0625 ppm (Septoria tritici [5]; 0.0625 ppm) was 0%, the inhibition at 0.125 ppm (Septoria tritici [5]; 0.125 ppm) was 0% and the inhibition at 0.25 ppm (Septoria tritici [5]; [10]) was 0%. It also gave an inhibition at 0.5 ppm (Septoria tritici [5]; 0.5 ppm) of 0%, an inhibition at 1 ppm (Septoria tritici [5]; 1 ppm) of 0% and an inhibition at 2 ppm (Septoria tritici [5]; 2 ppm) of 0%. The inhibition at 0.015625 ppm ([6]; 0.015625 ppm, read-out: Activity (%)) was 0%, the inhibition at 0.03125 ppm ([6]; 0.03125 ppm, read-out: Activity (%)) was 0% and the inhibition at 0.0625 ppm ([6]; 0.0625 ppm, read-out: Activity (%)) was 0%. It also gave an inhibition at 0.125 ppm ([6]; 0.125 ppm, read-out: Activity (%)) of 0%, an inhibition at 0.25 ppm [6, 10] of 0% and an inhibition at 0.5 ppm ([6]; 0.5 ppm, read-out: Activity (%)) of 0%. For the same compound, the inhibition at 1 ppm ([6]; 1 ppm) was 70%, the inhibition at 2 ppm ([6]; 2 ppm) was 70% and the Activity ([7]; rate 0.5 g ai/ha) was 0%. The Activity ([7]; rate 2 g ai/ha) was 13%, the inhibition at 0.015625 ppm ([8]; applied alone, 0.015625 ppm) was 0% and the inhibition at 0.03125 ppm ([8]; applied alone, 0.03125 ppm) was 0%. It also gave an inhibition at 0.0625 ppm ([8]; applied alone, 0.0625 ppm) of 0%, an inhibition at 0.125 ppm ([8]; applied alone, 0.125 ppm) of 0% and an inhibition at 2 ppm ([8]; applied alone, 2 ppm) of 20%. The inhibition at 0.015625 ppm ([8]; single compound, rate 0.015625 ppm) was 0%, the inhibition at 0.03125 ppm ([8]; single compound, rate 0.03125 ppm) was 0% and the inhibition at 0.0625 ppm ([8]; single compound, rate 0.0625 ppm) was 0%. The inhibition at 0.125 ppm [8, 9] was 0%, the inhibition at 0.25 ppm ([8]; single compound, rate 0.25 ppm) was 20% and the inhibition at 0.5 ppm ([8]; single compound, rate 0.5 ppm) was 50%. It also gave an inhibition at 1 ppm ([8]; single compound, rate 1 ppm) of 70%.

— US9326513B2, “Fungicidal compositions” (Syngenta Participations AG, priority 2011, dated 2016)
